Values of other authors in patent publication US6689399B1, “Transdermal delivery of an anti-inflammatory composition” (priority 2000, dated 2004).

Tests used:
[1] = four trials, 0.075% capsaicin cream four times daily for 4-8 weeks; placebo 49%
[2] = four trials, 0.025% capsaicin cream four times daily for 6-8 weeks; placebo 42%
[3] = single trial, 0.075% capsaicin cream four times daily for six weeks; 5/13; placebo 10%
[4] = three trials, capsaicin cream (two 0.025%, one 0.075%) four times daily for four weeks; placebo 16%
[5] = single trial, 0.075% capsaicin cream three or four times daily for three weeks; 4/16; placebo 6%

COc1cc(CNC(=O)CCCC/C=C/C(C)C)ccc1O [capsaicin, trans-8-methyl-N-vanillyl-6-nonenamide]
patients responding to capsaicin, diabetic neuropathy [1]: 73%
patients responding to capsaicin, psoriasis [2]: 68%
patients reporting pain relief, postmastectomy pain [3]: 38%
patients responding to capsaicin, osteoarthritis [4]: 45%
patients reporting pain relief, postherpetic neuralgia [5]: 25%
